How the values were obtained:
[1] = Metabolic stability in human liver microsomes assessed as degradation at 1 uM measured upto 45 mins in presence of NADPH measured per mg protein by LC-MS/MS analysis; type: ADME, Microsome; details: 0.75 h
[2] = Chemical stability of the compound in 1M HCl assessed as half life measured for 24 hrs by LC-MS analysis; type: physicochemical
[3] = Stability of the compound in 0.1M NaOH assessed as parent compound remaining measured after 24 hrs by LC-MS analysis; type: physicochemical; details: read-out: Stability
[4] = Stability of the compound in 0.30% H2O2 assessed as parent compound remaining measured after 24 hrs by LC-MS analysis; type: physicochemical; details: read-out: Stability
[5] = Thermal stability of the compound assessed as parent compound remaining at 60 degreeC measured for 6 days by LC-MS analysis; type: physicochemical; details: time 6 day
[6] = Photolytic stability of the compound assessed as half life under 12900 lx light irradiation measured for 14 days by LC-MS analysis; type: physicochemical; details: time 14 day
[7] = Photolytic stability of the compound assessed as parent compound remaining incubated under 12900 lx light irradiation measured for 14 days by LC-MS analysis; type: physicochemical; details: time 14 day
[8] = Stability of the compound in 0.1M NaOH assessed as half life measured after 24 hrs by LC-MS analysis; type: physicochemical
[9] = Stability of the compound in 0.30% H2O2 assessed as half life measured after 24 hrs by LC-MS analysis; type: physicochemical
[10] = Stability of the compound in 1M HCl assessed as parent compound remaining measured for 24 hrs by LC-MS analysis; type: physicochemical; details: buffer
[11] = Thermal stability of compound assessed as half life at 60 degreeC measured for 6 days by LC-MS analysis; type: physicochemical; details: 144 h; time 6 day

Structure (SMILES): CN(C)CCc1c[nH]c2cccc(OC(=O)OCc3ccccc3)c12.O=C(O)/C=C/C(=O)O.O=CO
- Drug degradation [1]: > 200 µL/min

Structure (SMILES): CN(C)CCc1c[nH]c2cccc(OS(=O)(=O)O)c12
- Drug degradation [1]: > 200 µL/min

Structure (SMILES): CN(C)CCc1c[nH]c2cccc(OP(=O)(O)O)c12 [PSILOCYBIN]
- Drug degradation [1]: < 10 µL/min

Structure (SMILES): CN(C)CCc1c[nH]c2cccc(O)c12.OB(O)O
- half-life ([2]; 1M HCl): > 167 h
- remaining at 24 h [3]: 0%
- remaining at 24 h [4]: 0%
- remaining at 144 h ([5]; read-out: Stability): 0%
- half-life [6]: < 16.7 h
- remaining at 336 h ([7]; read-out: Stability): 0%

Structure (SMILES): CC(C)COC(=O)Oc1cccc2[nH]cc(CCN(C)C)c12.O=CO
- Drug degradation [1]: > 200 µL/min

Structure (SMILES): CCCC(=O)Oc1cccc2[nH]cc(CCN(C)C)c12.O=C(O)/C=C/C(=O)O
- Drug degradation [1]: > 200 µL/min

Structure (SMILES): COC(=O)Oc1cccc2[nH]cc(CCN(C)C)c12.O=C(O)/C=C/C(=O)O
- Drug degradation [1]: > 200 µL/min

Structure (SMILES): CN(C)CCc1c[nH]c2cccc(OC(=O)N3CCCCC3)c12.O=C(O)/C=C/C(=O)O
- Drug degradation [1]: < 10 µL/min

Structure (SMILES): CN(C)CCc1c[nH]c2cccc(OCc3ccccc3)c12
- Drug degradation [1]: 44 µL/min

Structure (SMILES): CN(C)CCc1c[nH]c2cccc(OB(O)O)c12.O=C(O)/C=C/C(=O)O
- Drug degradation [1]: > 200 µL/min

Structure (SMILES): CN(C)CCc1c[nH]c2cccc(O)c12.O=C1O[C@H]([C@@H](O)CO)C(O)=C1O
- t1/2 ([2]; buffer, 24 h): > 166.67 h
- t1/2 [8]: 16.67 h
- t1/2 [9]: > 166.67 h
- Stability [10]: 97%
- t1/2 [11]: 150 h
- Stability ([5]; 144 h): 42%
- Stability ([7]; 336 h): 39%

Structure (SMILES): CCCCC(=O)Oc1cccc2[nH]cc(CCN(C)C)c12.O=C(O)/C=C/C(=O)O
- Drug degradation [1]: > 200 µL/min

— ChEMBL document CHEMBL6115046, “Synthesis and In Vitro Profiling of Psilocin Derivatives: Improved Stability and Synthetic Properties” (J Med Chem, 2025)
